According to US20260078239A1, “USE OF AN ANTIOXIDANT FOR REDUCING AND/OR PREVENTING THE TOXICITY OF A RUBBER COMPOSITION” (NYCO, priority 2022, published 2026):

How the values were obtained:
[1] = hazard statements in words; cited from earlier work
[2] = tested on: whole adult planarians; settings: 0.22-22 mg/L, 12 days, control points at 7 and 12 days; for Concentration above which behavioral problems potentially linked to cognitive problems in the planarian are observed: adhesion, speed of movement, rest, phototaxis, scrunching

SMILES	Toxicity (confirmed toxicity, ECHA substance information) [1]	Concentration above which significant mortality of planarian is observed according to Zhang et al., Neurotoxicology and Teratology, 2019 [2]	Concentration above which behavioral problems potentially linked to cognitive problems in the planarian are observed [2]
c1ccc(Nc2ccc(NC3CCCCC3)cc2)cc1 [CPPD, N-cyclohexyl-N′-phenyl-p-phenylenediamine]	Is toxic to aquatic life with long-term	–	–
c1ccc(Nc2ccc(Nc3ccccc3)cc2)cc1 [DPPD, N,N′-diphenyl-p-phenylenediamine]	Is harmful to aquatic life with long-term	–	–
CC(C)(C)c1cc(Cc2cc(C(C)(C)C)c(O)c(C(C)(C)C)c2)cc(C(C)(C)C)c1O [Example 3, 4,4′-Methylene-bis-(2,6-di-tert-butylphenol)]	Under evaluation as an endocrine	–	–
c1ccc(Nc2cccc3ccccc23)cc1 [Example 19, N-phenylnaphthalene-1-amine]	–	6.9 mg/L	2200 to 3900 ng/mL
CC(C)CC(C)Nc1ccc(Nc2ccccc2)cc1 (centres unmarked) [Example 22, N-(1,3-Dimethylbutyl)-N′-phenyl-p-phenylenediamine]	Harms fertility or has a negative impact	4.8 mg/L	1500 ng/mL
